Laboratory results published in patent EP0381959B1, “Cyclohexaneacetamide derivatives” (F. HOFFMANN-LA ROCHE AG, priority 1989, dated 1990).

Test system: male C57Bl/10 mice
Test: Morris water maze task (latency to locate hidden platform)
Format: in vivo
Details: Dose-Response (IP), intraperitoneal, dissolved in saline, 30 minutes prior to testing
From the text: The test animals were male C57Bl/10 mice, weighing 17-21 grams at the time of testing. Mice were housed in groups of 10 and had ad lib access to food and water. Mice of this strain appear to be deficient in learning the water maze task and are therefore suitable for use in drug evaluation.[Symons, J.P., Davis, R.E., and Marriott J.G. Life Sciences, 1988, 42, 375-383.] The Morris water maze task requires an animal to attend to spatial cues in order to locate the position of a hidden platform submerged underwater. [Morris, B. G. Learning and Motivation , 1981, 12, 239-260, and Symons, J.P., Davis, R.E., and Marriott J.G. Life Sciences, 1988, 42, 375-383.] The maze consisted of a 60 cm x 60 cm x 60 cm transparent plexiglas chamber filled to a depth of 30 cm, leaving 30 cm of wall extended up from the water surface. The water was made opaque by the addition of powdered milk. The water temperature was maintained at 20 °C. Both distal cues (i.e., standard room objects) and proximal cues (that is, 20 cm x 22 cm unique black and white patterns pasted to the center of each of the four walls of the maze) were used. The submerged platform, 8 x 8 cm, 1 cm below the water's surface was positioned near one of the four corners of the maze. […] The time required for each animal to locate the platform on each of the four trials was recorded (latency). […]

## NC(=O)[C@@H]1CCCN1C(=O)[C@H](Cc1c[nH]cn1)NC(=O)[C@@H]1CCC(=O)N1 [TRH, pGlu-His-ProNH₂]
  Active Dose Range: 0.1 to 0.3 mg/kg
